Measured values from patent US8791099B2, “Transition metal complexes of corroles for preventing cardiovascular diseases or disorders” (Technion Research and Development Foundation Ltd., priority 2007, dated 2014).

Assays:
[1] = tested on: mouse peritoneal macrophages (MPM); assay: Cholesterol efflux from MPM of treated E^0 mice; conditions: drinking water 0.04 mM (8 mg/Kg/day), 14 weeks
Procedure: Mouse peritoneal macrophages were incubated with [^3H]-labeled cholesterol for 1 h at 37° C. followed by cell wash in ice-cold PBS (3×) and further incubation in the absence or presence of 100 μg of human HDL protein/ml for 3 h at 37° C. Cellular and medium [^3H]-labels were quantitated and HDL-mediated cholesterol efflux was calculated as the ratio of [^3H]-label in the medium/[^3H]-label in the medium+[^3H]-label in cells.

[2] = tested on: mouse peritoneal macrophages (MPM); assay: Cholesterol synthesis by MPM of treated E^0 mice; conditions: drinking water 0.04 mM (8 mg/Kg/day), 14 weeks
Procedure: Cellular cholesterol biosynthesis was assayed after incubation of macrophages (3×10^6 well^−1) overnight with DMEM containing 2% BSA followed by additional 3 h of incubation at 37° C. with [^3H]-acetate (3.3 μCi/ml). Cellular lipids were extracted with hexane:isopropanol (3:2, v:v), and the upper phase was dried under nitrogen. The lipids were then separated by TLC using an eluent of hexane:ether:acetic acid (130:30:1.5, v:v:v). Unesterified cholesterol spots were visualized by iodine vapor (by using standard for identification) and counted with β-counter.

J-774 macrophages = assay: Cholesterol efflux from J-774 macrophages by serum of treated E^0 mice; conditions: drinking water 0.04 mM (8 mg/Kg/day), 14 weeks
Procedure: J-774 macrophages were incubated with [^3H]-labeled cholesterol for 1.5 h at 37° C. followed by cell wash in ice-cold PBS (3×) and further incubation in the presence of 15 μL mice serum for 3 h at 37° C. Cellular and medium [^3H]-labels were quantitated and HDL-mediated cholesterol efflux was calculated as the ratio of [^3H]-label in the medium/[^3H]-label in the medium+[^3H]-label in cells.

[3] = Decomposition of peroxynitrite, comparison with punicalagin; conditions: calculated from rate constants
Procedure: For initial assessment of possible superiority of the metallocorroles relative to natural antioxidants, we have determined the effect of excess (45-135 μM) punicalagin—the active polyphenolic hydrolysable tannin ingredient of pomegranate juice (Tzulker et al., 2007), on decomposition of peroxynitrite (40 μM).

Compound | Increase in cholesterol efflux from the E^0 MPM [1] [%] | Increase of cholesterol synthesis by MPMs [2] [%] | Increase in serum-mediated cholesterol efflux from J-774 macrophages (J-774 macrophages) [%] | Minimal concentration required for reducing the half lifetime of peroxynitrite by 50% [3] [mol %]
COc1c(F)c(F)c(C2=C3C=CC(=N3)C(c3c(F)c(F)c(OC)c(F)c3F)=c3ccc4[n]3[Fe]3[n]5c(cc(S(=O)(=O)O)c5C=4c4c(F)c(F)c(OC)c(F)c4F)-c4c(S(=O)(=O)O)cc2[n]43)c(F)c1F [2-Fe, 5,10,15-tris(4-methoxy-2,3,5,6-tetrafluorophenyl)-2,17-bis(sulfonic acid)-corrolato iron(III)] | 14 | 8 | 9 | 
O=C1O[C@H]2[C@@H]3OC(=O)c4cc(O)c(O)c(O)c4-c4c(O)c(O)c5oc(=O)c6c(c(O)c(O)c7oc(=O)c4c5c76)-c4c(cc(O)c(O)c4O)C(=O)OC[C@H]3OC(O)[C@@H]2OC(=O)c2cc(O)c(O)c(O)c2-c2c1cc(O)c(O)c2O (mixture of isomers) [punicalagin, reference compound] |  |  |  | 250
